Drawing on article PMC9732672, “Pyrazolyl-s-triazine with indole motif as a novel of epidermal growth factor receptor/cyclin-dependent kinase 2 dual inhibitors” (Frontiers in Chemistry, 2022), this text covers IC50 and melting point for 18 molecules.

Where two headings read alike, the source gives them in different places. Where only a bound is given, the exact number is not on record here.

The test system of data set [1] is MCF-7 (breast cancer) cells. Nature of the data set: MTT cytotoxicity assay, MCF-7. The settings on record: read-out: IC50 ± STDEV, MCF-7. The class given is cell-based, human. As for the experimental part:
(§1) The parental MCF7 (breast cancer cell line), A549 (non-small cell lung cancer cell line), and human dermal fibroblast (HDF) (human dermal cell line) cells were obtained from the American Type Culture Collection (ATCC, Manassas, VA, United States). MCF7 and A549 cells were cultured in RPMI 1640 medium (EuroClone, Italy) supplemented with 10% (v/v) heat-inactivated fetal bovine serum (FBS) (EuroClone, Italy), 1% penicillin-streptomycin (EuroClone, Italy), and 2 mM L-glutamine.
(§2) The cytotoxic activity of the tested compounds were tested using MTT assay. […] Then, the cell viability was recored and IC50 values were calcualted. ([Mosmann, 1983]; [Nafie et al., 2020c]).
Background: Tetrazolium assays rely on reduction of a dye to a coloured formazan, in cell work by metabolically active cells.

The subject of data set [2] is HDFs (non-cancerous human dermal fibroblasts). The data set is described as follows: MTT cytotoxicity assay, HDFs. In kind it is cell-based. The settings on record: non-cancerous cells, average ±SD of four independent experiments, read-out: IC50 ± STDEV, HDFs. The method, then: as §1, §2
For data set [3], the system named is A549 (non-small cell lung cancer) cells. Nature of the data set: MTT cytotoxicity assay, A549. Particulars: read-out: IC50 ± STDEV, A549. In kind it is cell-based, human. As for the experimental part: as §1, §2
Setting [4] is: average ±SD of four independent experiments.
The mark [5] stands for this setting: Homo sapiens, MCF7, average ±SD of four independent experiments.
[6] abbreviates: Homo sapiens, A549, average ±SD of four independent experiments.

For “2-(4,6-Di (piperidin-1-yl)-1,3,5-triazin-2-yl)-3-(1H-indol-3-yl)-2,3-dihydro-1H-pyrazole-4-carbonitrile [Compound 5a]”, the values for the IC50 in data set [1] (setting [4]), in data set [2] and in data set [3] (setting [4]) were 65.2 ± 1.43 µM, above 500 µM and 66.1 ± 5.71 µM, respectively.

For `Nc1cc(-c2c[nH]c3ccccc23)nn1-c1nc(N2CCCCC2)nc(N2CCCCC2)n1` [Compound 3a, 1-(4,6-Di (piperidin-1-yl)-1,3,5-triazin-2-yl)-3-(1H-indol-3-yl)-1H-pyrazol-5-amine], the melting point (in general, the temperature, or range, at which the solid turns liquid) lay in the range of 288 to 290 °C. In addition, the IC50 – broadly, the midpoint of a concentration-inhibition curve – in data set [1] (setting [5]) is above 500 µM. Further, the IC50 in data set [2] (Homo sapiens, Fibroblast) is above 500 µM. Further, the IC50 in data set [3] (setting [6]) was above 500 µM.

The molecule `Nc1cc(-c2c[nH]c3ccccc23)nn1-c1nc(N2CCOCC2)nc(N2CCOCC2)n1` [Compound 3b, 1-(4,6-Dimorpholino-1,3,5-triazin-2-yl)-3-(1H-indol-3-yl)-1H-pyrazol-5-amine] had a melting point of 188 to 189 °C. In data set [1] (setting [5]), the 50% inhibitory concentration (IC50) was determined as 11.7 ± 1.77 µM. Further, the 50% inhibitory concentration (IC50) in data set [2] (Homo sapiens, Fibroblast) was 4.47 ± 1.43 µM. For the same molecule, in data set [3] (setting [6]), the half-maximal inhibitory concentration (IC50) turned out to be 3.08 ± 1.27 µM.

Consider `Nc1cc(-c2c[nH]c3ccccc23)nn1-c1nc(N2CCCCC2)nc(N2CCOCC2)n1` [Compound 3c, 3-(1H-Indol-3-yl)-1-(4-morpholino-6-(piperidin-1-yl)-1,3,5-triazin-2-yl)-1H-pyrazol-5-amine], for which the melting point was in the range of 178 to 179 °C. For the same molecule, the half-inhibitory concentration (IC50) in data set [1] (setting [5]) is 12.6 ± 1.03 µM. For the same molecule, in data set [2] (Homo sapiens, Fibroblast), the half-maximal inhibitory concentration (IC50) was 6.82 ± 1.34 µM. Moreover, in data set [3] (setting [6]), the IC50 was 4.82 ± 0.29 µM.

Turning to `Nc1cc(-c2c[nH]c3ccccc23)nn1-c1nc(Nc2ccccc2)nc(N2CCCCC2)n1` [Compound 3d, 4-(5-Amino-3-(1H-indol-3-yl)-1H-pyrazol-1-yl)-N-phenyl-6-(piperidin-1-yl)-1,3,5-triazin-2-amine], the half-maximal inhibitory concentration (IC50) worked out at 11.7 ± 4.43 µM in data set [1] (setting [5]); 22.9 ± 5.2 µM in data set [2] (Homo sapiens, Fibroblast); 10.6 ± 2.88 µM in data set [3] (setting [6]).

`Nc1cc(-c2c[nH]c3ccccc23)nn1-c1nc(Nc2ccc(Cl)cc2)nc(N2CCCCC2)n1` [Compound 3e, 4-(5-Amino-3-(1H-indol-3-yl)-1H-pyrazol-1-yl)-N-(4-chlorophenyl)-6-(piperidin-1-yl)-1,3,5-triazin-2-amine]: the melting point was 295 to 296 °C. The 50% inhibitory concentration (IC50) in data set [1] (setting [5]) came out at 15.2 ± 0.74 µM. For the same molecule, the 50% inhibitory concentration (IC50) in data set [2] (Homo sapiens, Fibroblast) is 11.2 ± 0.69 µM. Moreover, in data set [3] (setting [6]), the IC50 was found to be 9.57 ± 1.26 µM.

For `Nc1cc(-c2c[nH]c3ccccc23)nn1-c1nc(Nc2ccc(Br)cc2)nc(N2CCCCC2)n1` [Compound 3f, 4-(5-Amino-3-(1H-indol-3-yl)-1H-pyrazol-1-yl)-N-(4-bromophenyl)-6-(piperidin-1-yl)-1,3,5-triazin-2-amine], the melting point lay within 271 to 274 °C. In addition, in data set [1] (setting [5]), the IC50 worked out at 13.2 ± 0.55 µM. Moreover, in data set [2] (Homo sapiens, Fibroblast), the IC50 is 6.8 ± 1.02 µM. Also, the IC50 in data set [3] (setting [6]) was determined as 14.8 ± 0.83 µM.

For the molecule `COc1ccc(Nc2nc(N3CCCCC3)nc(-n3nc(-c4c[nH]c5ccccc45)cc3N)n2)cc1` [Compound 3g, 4-(5-Amino-3-(1H-indol-3-yl)-1H-pyrazol-1-yl)-N-(4-methoxyphenyl)-6-(piperidin-1-yl)-1,3,5-triazin-2-amine], the half-maximal inhibitory concentration (IC50) in data set [1] (setting [5]) amounted to 7.68 ± 0.21 µM; in data set [2] (Homo sapiens, Fibroblast) it was 4.36 ± 0.83 µM; in data set [3] (setting [6]) it was 6.23 ± 0.48 µM.

In the case of `COc1ccc(Nc2nc(N3CCOCC3)nc(-n3nc(-c4c[nH]c5ccccc45)cc3N)n2)cc1` [Compound 3k, 4-(5-Amino-3-(1H-indol-3-yl)-1H-pyrazol-1-yl)-N-(4-methoxyphenyl)-6-morpholino-1,3,5-triazin-2-amine], the half-inhibitory concentration (IC50) was 4.11 ± 0.5 µM in data set [1] (setting [5]); 8.9 ± 1.07 µM in data set [2] (Homo sapiens, Fibroblast); 3.64 ± 1.26 µM in data set [3] (setting [6]).

Turning to `N#Cc1cnn(-c2nc(N3CCOCC3)nc(N3CCOCC3)n2)c1-c1c[nH]c2ccccc12` [Compound 5b, 1-(4,6-Dimorpholino-1,3,5-triazin-2-yl)-5-(1H-indol-3-yl)-1H-pyrazole-4 carbonitrile], the melting point lay in the range of 328 to 330 °C. Also, the IC50 in data set [1] (setting [5]) is above 500 µM. Besides, the IC50 in data set [2] (Homo sapiens, Fibroblast) is above 500 µM. For the same molecule, the IC50 in data set [3] (setting [6]) was above 500 µM.

As to `N#Cc1cnn(-c2nc(N3CCCCC3)nc(N3CCOCC3)n2)c1-c1c[nH]c2ccccc12` [Compound 5c, 5-(1H-Indol-3-yl)-1-(4-morpholino-6-(piperidin-1-yl)-1,3,5-triazin-2-yl)-1H-pyrazol4-carbonitrile], the IC50 in data set [1] (setting [5]) turned out to be 152 ± 50.1 µM; in data set [2] (Homo sapiens, Fibroblast), 537 ± 71.6 µM; in data set [3] (setting [6]), 223 ± 88.3 µM.

On to `N#Cc1cnn(-c2nc(Nc3ccccc3)nc(N3CCCCC3)n2)c1-c1c[nH]c2ccccc12` [Compound 5d, 5-(1H-Indol-3-yl)-1-(4-(phenylamino)-6-(piperidin-1-yl)-1,3,5-triazin-2-yl)-1H-pyrazole-4-carbonitrile], for which the melting point lay in the range of 298 to 299 °C. Further, in data set [1] (setting [5]), the IC50 amounted to 16.8 ± 0.78 µM. Besides, in data set [2] (Homo sapiens, Fibroblast), the IC50 was determined as 115 ± 14.8 µM. Also, the half-inhibitory concentration (IC50) in data set [3] (setting [6]) was determined as 10.3 ± 2.64 µM.

`N#Cc1cnn(-c2nc(Nc3ccc(Cl)cc3)nc(N3CCCCC3)n2)c1-c1c[nH]c2ccccc12` [Compound 5e, 1-(4-((4-Chlorophenyl)amino)-6-(piperidin-1-yl)-1,3,5-triazin-2-yl)-5-(1H-indol-3-yl)-1H-pyrazole-4-carbonitrile]: the IC50 in data set [1] (setting [5]) is above 500 µM; in data set [2] (Homo sapiens, Fibroblast), above 500 µM; in data set [3] (setting [6]), above 500 µM.

`N#Cc1cnn(-c2nc(Nc3ccc(Br)cc3)nc(N3CCCCC3)n2)c1-c1c[nH]c2ccccc12` [Compound 5f, 1-(4-((4-Bromophenyl)amino)-6-(piperidin-1-yl)-1,3,5-triazin-2-yl)-5-(1H-indol-3-yl)-1H-pyrazole-4-carbonitrile]: the IC50 was above 500 µM in data set [1] (setting [5]); above 500 µM in data set [2] (Homo sapiens, Fibroblast); above 500 µM in data set [3] (setting [6]).

In turn, `N#Cc1cnn(-c2nc(Nc3ccccc3)nc(N3CCOCC3)n2)c1-c1c[nH]c2ccccc12` [Compound 5h, 5-(1H-Indol-3-yl)-1-(4-morpholino-6-(phenylamino)-1,3,5-triazin-2-yl)-1H-pyrazole-4-carbonitrile] gave a melting point of 314 to 316 °C. For the same molecule, the IC50 in data set [2] (Homo sapiens, Fibroblast) was 23.8 ± 3.37 µM. In addition, the concentration for half-maximal inhibition (IC50) in data set [3] (setting [6]) was found to be 7.62 ± 0.85 µM.

As for `N#Cc1cnn(-c2nc(Nc3ccc(Cl)cc3)nc(N3CCOCC3)n2)c1-c1c[nH]c2ccccc12` [Compound 5i, 1-(4-((4-Chlorophenyl)amino)-6-morpholino-1,3,5-triazin-2-yl)-5-(1H-indol-3-yl)-1H-pyrazole-4-carbonitrile], the concentration for half-maximal inhibition (IC50) is 59.8 ± 0.81 µM in data set [1] (setting [5]); above 500 µM in data set [2] (Homo sapiens, Fibroblast); 44.5 ± 19.2 µM in data set [3] (setting [6]).

For `N#Cc1cnn(-c2nc(Nc3ccc(Br)cc3)nc(N3CCOCC3)n2)c1-c1c[nH]c2ccccc12` [Compound 5j, 1-(4-((4-Bromophenyl)amino)-6-morpholino-1,3,5-triazin-2-yl)-5-(1H-indol-3-yl)-1H-pyrazole-4-carbonitrile], the half-maximal inhibitory concentration (IC50) was 51.1 ± 10.3 µM in data set [1] (setting [5]); above 500 µM in data set [2] (Homo sapiens, Fibroblast); 23.2 ± 2.27 µM in data set [3] (setting [6]).

`COc1cccc2c1C(=O)c1c(O)c3c(c(O)c1C2=O)C[C@@](O)(C(=O)CO)C[C@@H]3O[C@H]1C[C@H](N)[C@H](O)[C@H](C)O1` [Doxorubicin, reference compound]: the IC50 in data set [1] (setting [5]) came to 0.06 ± 0.02 µM; in data set [2] (Homo sapiens, Fibroblast), 0.42 ± 0.27 µM; in data set [3] (setting [6]), 0.28 ± 0.11 µM.
